Results as given in patent US20110166196A1, “TREATMENT AND PROPHYLAXIS OF EPILEPSY AND FEBRILE SEIZURES” (priority 2008, published 2011).

How the values were obtained:
[1] = system: excitatory synapses onto CA1 hippocampal interneurons; assay: HFS-induced long-term depression (LTD) of EPSCs, whole-cell recording in hippocampal slices; assay type: cell-based, rat
Source text: (§1) The basic methods have been detailed previously (McMahon and Kauer, 1997). Sprague-Dawley rats (15-22 days old) were used in the majority of experiments. In addition, we used TRPV1^−/− mice (Caterina et al., 2000) and wild-type C57BL/6 mice aged between 15 and 21 days (Jackson Laboratory). The TRPV1^−/− mice we used have been backcrossed at least 10 times onto a C57BL/6 background and were obtained from homozygous breeding pairs. Control mice were therefore not littermates but were age-matched, wild-type C57BL/6 animals received from the same supplier in the same shipment. All animal protocols were approved by the Brown University Institutional Animal Care and Use Committee. For mouse experiments, only one brain slice per mouse was used for each experiment, so that reported ‘n’ numbers represent the number of animals. Animals were anaesthetized using halothane or isoflurane and quickly decapitated. The brain was rapidly removed and 300 μm thick coronal slices prepared and stored for at least one hour submerged on a net in artificial cerebrospinal fluid (ACSF) containing in mM: 119 NaCl, 26 NaHCO3, 2.5 KCl, 1.0 NaH2PO4, 2.5 CaCl2, 1.3 MgSO4 and 11 dextrose, saturated with 95% O2/5% CO2 (pH 7.4). Slices were then transferred to a submerged recording chamber and bathed in oxygenated ACSF (28-32° C.) containing elevated divalent cations to reduce epileptiform activity (4 mM CaCl2 and 4 mM MgCl2, replacing MgSO4). A surgical cut was made between the CA3 and CA1 regions. The storage of slices submerged on a net rather than in an interface chamber on filter paper may be important in maintaining slice health and improving the likelihood of observing LTD.
(§2) Slices were continuously perfused with ACSF warmed to 28-32° C. at a flow rate of 1-2 ml/min. Picrotoxin (100 μM) and D-AP5 (50 μM) were added to block GABAA receptor- and NMDAR-mediated synaptic transmission. Whole-cell patch clamp recordings were made from interneurons identified visually in the CA1 stratum radiatum of the hippocampus. […] Patch pipettes were filled with internal recording solution containing in mM: 117 cesium gluconate, 2.8 NaCl, 5 MgCl2, 20 HEPES, 2 ATP-Na^+, 0.3 GTP-Na^+ and 0.6 EGTA. In some experiments 2 μM capsazepine, 140 nM baicalein, or 250 μM GDPβS were also included in the intracellular patch pipette solution. In experiments with BAPTA-containing patch electrodes, EGTA was omitted from the intracellular solution and 25 or 40 mM BAPTA replaced a corresponding amount of cesium gluconate. EPSCs were stimulated at 0.1 Hz (100 μsec) using a bipolar stainless steel stimulating electrode placed in stratum radiatum at least 200 μm from the recorded cell. CA1 interneurons were voltage clamped at −65 mV (not corrected for the liquid junction potential, of ˜10 mV), and EPSCs were evoked by paired pulses with an interval of 50 msec (stimulus intensity typically 50-400 μA). In early experiments, we measured rectification ratios of EPSCs evoked at +40 mV/−60 mV in the presence of 50 μM D-AP5, measured at the time of peak inward synaptic current seen at −70 mV (Lei and McBain, 2004).
High-frequency stimulation was used to induce LTD (HFS; two 1 sec trains at 100 Hz, inter-train interval 20 sec, at 1.5 times test current intensity) with the neuron held in current-clamp mode, so that the HFS trains were delivered with the membrane potential free to vary. Receptor antagonists were added directly to the ACSF at known concentrations for at least 10 minutes prior to HFS. Control experiments were interleaved with those experiments using receptor antagonists or involving slices from TRPVl^−/− mice. The cell input resistance and series resistance were monitored throughout each experiment; cells were discarded if these values changed by more than 10% during the experiment.

[2] = system: excitatory synapses onto CA1 hippocampal interneurons; assay: Drug-induced depression of EPSC amplitudes, whole-cell recording in hippocampal slices; assay type: cell-based, rat
Source text: as §1, §2
The maximal initial slope of fEPSPs was calculated using a LabVIEW-based program (National Instruments). The peak amplitude of each EPSC was measured by comparing a 10 msec time period immediately prior to the stimulus with the peak of the EPSC using this program as well. Occasionally polysynaptic responses were evoked, and in these cases, only the initial monosynaptic event was measured. To positively identify LTD, EPSCs measured every 10 seconds were averaged in 1 minute intervals. EPSC amplitude values were normalized to control pre-HFS EPSC amplitude values (baseline period of at least 5 minutes prior to HFS) and subjected to analysis of variance (ANOVA) repeated measures analysis with a post-hoc Dunnett's test (GraphPad Prism, Version 4).

hippocampal area CA1 = conditions: in vivo treatment of animals after the induction of febrile seizures; cited from earlier work
[3] = system: CA1 pyramidal neurons from trpv1−/− mice; assay: Residual heat-activated current in CA1 pyramidal neurons from trpv1-/- mice; assay type: cell-based, mouse; conditions: 10 μM ruthenium red bath; trpv1−/− CA1 neurons (34.6±8.4 pA without); n=5

Nc1nc2c(ncn2[C@@H]2O[C@H](COP(=O)(O)OP(O)(O)=S)[C@@H](O)[C@H]2O)c(=O)[nH]1 [GDPβS]
cells recorded from with intracellular GDPβS that had LTD ([1]; patch pipette solution containing 250 μM GDPβS): 6 of 10
EPSC amplitudes 15-20 minutes post-HFS with intracellular GDPβS ([1]; patch pipette solution containing 250 μM GDPβS, n=10): 88.2±10.6 % of control values before HFS

COC(=O)[C@@H](N)CCCNC(=N)N[N+](=O)[O-] [L-NAME]
EPSC amplitudes 15-20 minutes post-HFS ([1]; 200 μM L-NAME bath applied 10 minutes prior to HFS, n=5): 46.3±10.4 % of control values before HFS

Cc1c(C(=O)NN2CCCCC2)nn(-c2ccc(Cl)cc2Cl)c1-c1ccc(Cl)cc1 [SR141716A]
EPSC amplitudes 15-20 minutes post-HFS ([1]; SR141716A 2-5 μM bath-applied, n=10, control LTD 62.0±5.3%): 110.6±19.3 % of control values before HFS
EPSC amplitudes after 10-15 minutes in capsaicin and in the presence of SR141716A ([2]; SR141716A 2 μM pretreatment, capsaicin 1 μM, n=6): 102.8±9.2 % of pre-capsaicin control values
EPSC amplitudes after 10-15 minutes in 12-(S)-HPETE and in the presence of SR141716A ([2]; SR141716A 2 μM, 12-(S)-HPETE 100 nM, n=5): 106.9±5.5 % of pre-12-(S)-HPETE control values
emergence of long-term limbic hyperexcitability (hippocampal area CA1): prevented the emergence of long-term limbic hyperexcitability
hyperexcitability in hippocampal area CA1 (hippocampal area CA1): reduced hyperexcitability in hippocampal area CA1

Cc1c(C(=O)c2cccc3ccccc23)c2cccc3c2n1[C@H](CN1CCOCC1)CO3 [WIN 55,212-2]
EPSC amplitudes 15-20 minutes post-HFS ([1]; pre-treatment with WIN 55,212-2 1 μM for at least ten minutes, n=12): 51.3±7.5 % of control values in WIN55,212-2 before HFS
EPSC amplitudes after 10-15 minutes in WIN 55,212-2 alone ([2]; WIN 55,212-2 1 μM bath-applied, n=14): 66.1±7.9 % of pre-drug control values

O=c1cc(-c2ccccc2)oc2cc(O)c(O)c(O)c12 [baicalein]
cells with potentiation (greater than 125% of control 20 minutes following the HFS) ([1]; baicalein 500 nM bath-applied): four of ten
EPSC amplitudes 15-20 minutes post-HFS ([1]; baicalein 500 nM bath-applied, n=10): 129.6±20.3 % of control values before HFS
cells recorded from with intracellular baicalein that had LTD ([1]; patch pipette solution containing 140 nM baicalein): 4 of 12
EPSC amplitudes 15-20 minutes post-HFS with intracellular baicalein ([1]; patch pipette solution containing 140 nM baicalein, n=12): 110.8±15.4 % of control values before HFS

N.N.N.N.N.N.N.N.N.N.N.N.N.N.[Cl-].[Cl-].[Cl-].[Cl-].[Cl-].[Cl-].[O-2].[O-2].[Ru+3].[Ru+3].[Ru+4] [ruthenium red]
peak heat-evoked inward current in ruthenium red [3]: 9.3±7.7 pA
